2 compounds from patent US20110269718A1, “PHARMACEUTICAL COMPOSITION CONTAINING MALATHION AND VOLATILE CYCLIC SILICONE” (priority 2010, published 2011) can be followed below.

One data set deals with lice. Description: Pediculicidal activity of volatile silicone oil itself (stated, no method). In kind it is in vivo, Pediculus humanus var capitis.
The test system of the next data set is nits. The experiment in a line: Nit-killing activity of volatile silicone oil itself (stated, no method). In kind it is in vivo, Pediculus humanus var capitis.
Data set [1] can be described thus: Stability of malathion compositions, degradation measured by HPLC. In kind it is physicochemical. The protocol: The inventors measured malathion degradation by HPLC. The HPLC method was reverse-phase HPLC with UV detection (210 nm). The column used is an xTERRA C18 with a water/acetonitrile gradient and a flow rate of 0.6 ml/min. The malathion compositions tested comprise either malathion on its own, or a composition of 50% malathion and 50% isopropanol, or a composition of 50% malathion and 50% polydimethylcyclosiloxane, or a composition of 33% malathion with 33% isopropanol and 33% polydimethylcyclosiloxane. These compositions also contain excipients such as povidone as viscosity agent.
The stability of these compositions was assessed for 114 hours at 60° Celsius (Table 1).

Molecules are shown by their SMILES.

In the data set with lice, `C[Si]1(C)O[Si](C)(C)O[Si](C)(C)O[Si](C)(C)O[Si](C)(C)O1` [decamethylcyclopentasiloxane] registered a pediculicidal activity of 100%. Also, in the data set with nits, the nit-killing activity is listed as about 70%.

For the compound `CCOC(=O)CC(SP(=S)(OC)OC)C(=O)OCC` (stereo not shown) [Malathion alone, malathion], the “Malathion content (%)” value is given as 100.90% in data set [1] (T0), 100.3% in data set [1] (T 72 hrs 60° C.) and 91% in data set [1] (T 114 hrs 60° C.). The figures for the “Malathion loss (%)” value in data set [1] (T 72 hrs 60° C.) and in data set [1] (T 114 hrs 60° C.) were “(−0.1) %” and “(−9.8) %”, respectively.
